Source: patent US10647747B2, “Cyclosporin derivatives and uses thereof” (S&T Global Inc., priority 2010, dated 2020)
*1 amine or outer side, *2 acyl side, *3 side chain or, on linkers, in order; H or OH if unused. Where a SMILES comes first, the peptide text is derived from it. [ ]: non-standard residue; d: D form. MeBmt = C/C=C/C[C@@H](C)[C@@H](O)[C@H](NC)C(=O)O; X6 = CCN(CC)CCS[C@H](C(=O)[*:2])N(C)[*:1]; X3 = CC=CCC(C)C(O)C(C(=O)[*:2])N(C)[*:1]; X5 = CSCOC(C)(C)CC(C(=O)[*:2])N(C)[*:1]; X4 = CCN(CC)CCSC(C(=O)[*:2])N(C)[*:1]; NMeL = CN[CH](CC(C)C)C(=O)O; NMeV = CN[CH](C(=O)O)C(C)C; Abu = CC[CH](N)C(=O)O

test system: HCV replicon in cell line ET (luc-ubi-neo/ET), Huh7 human hepatoma; experiment: HCV subgenomic replicon assay, luciferase end point; type: cell-based; settings: HCV subgenomic replicon, cell line ET (luc-ubi-neo/ET) Huh7, luciferase end point; read-out: Antiviral activity EC50

Question: `C/C=C/C[C@@H](C)[C@@H](O)[C@H]1C(=O)N[C@@H](CC)C(=O)N(C)[C@H](COCCN(C)C)C(=O)N(C)[C@@H](CC(C)(C)OC)C(=O)N[C@@H](C(C)C)C(=O)N(C)[C@@H](CC(C)C)C(=O)N[C@@H](C)C(=O)N[C@H](C)C(=O)N(C)[C@@H](CC(C)C)C(=O)N(C)[C@@H](CC(C)C)C(=O)N(C)[C@@H](C(C)C)C(=O)N1C` was tested. Which EC50 did it give?
Answer: The EC50 was 150 nM.

same assay, conditions: Hepatitis C virus, Huh-7, HCV subgenomic replicon, cell line ET (luc-ubi-neo/ET) Huh7, luciferase end point; read-out: Antiviral activity EC50

Question: Which EC50 does the source give for `C/C=C/C[C@@H](C)[C@@H](O)[C@H]1C(=O)N[C@@H](CC)C(=O)N(C)[C@H](C)C(=O)N(CC)[C@@H](C(C)C)C(=O)N[C@@H](C(C)C)C(=O)N(C)[C@@H](CC(C)C)C(=O)N[C@@H](C)C(=O)N[C@H](C)C(=O)N(C)[C@@H](CC(C)C)C(=O)N(C)[C@@H](CC(C)C)C(=O)N(C)[C@@H](C(C)C)C(=O)N1C` [[D-N-MeAla]-3-[N-EtVal]-4-cyclosporin, reference compound] here?
Answer: Its EC50 is 70 nM.

same assay, conditions: Hepatitis C virus, Huh-7, Table 16, HCV replicon luciferase; read-out: Antiviral activity EC50

Question: `C/C=C/C[C@@H](C)[C@@H](O)[C@H]1C(=O)N[C@@H](CC)C(=O)N(C)[C@H](C)C(=O)N(CC)[C@@H](C(C)C)C(=O)N[C@@H](C(C)C)C(=O)N(C)[C@@H](CC(C)C)C(=O)N[C@@H](C)C(=O)N[C@H](C)C(=O)N(C)[C@@H](CC(C)C)C(=O)N(C)[C@@H](CC(C)C)C(=O)N(C)[C@@H](C(C)C)C(=O)N1C` [[D-N-MeAla]-3-[N-EtVal]-4-cyclosporin, reference compound] was tested. Which EC50 did it give?
Answer: Its EC50 is 50 nM.

same assay, conditions: Hepatitis C virus, Huh-7, read-out: Antiviral activity EC50, Table 12, HCV replicon luciferase

Question: `C/C=C/C[C@@H](C)[C@@H](O)[C@H]1C(=O)N[C@@H](CC)C(=O)N(C)CC(=O)N(C)[C@@H]([C@@H](C)CC)C(=O)N[C@@H](C(C)C)C(=O)N(C)[C@@H](CC(C)C)C(=O)N[C@@H](C)C(=O)N[C@H](C)C(=O)N(C)[C@@H](CC(C)C)C(=O)N(C)[C@@H](CC(C)C)C(=O)N(C)[C@@H](C(C)C)C(=O)N1C` [[N-MeIle]-4-cyclosporin (SDZ-NIM-811), N-MeIle-4-Cyclosporin, reference compound] was tested. Which EC50 did it give?
Answer: Its EC50 is 150 nM.

same assay, conditions: Table 12, HCV replicon luciferase; read-out: Antiviral activity EC50

Question: Which EC50 does the source give for `CC=CCC(C)C(O)C1C(=O)NC(CC)C(=O)N(C)C(SCCN(CC)CC)C(=O)N(C)C(CC(C)C)C(=O)NC(C(C)C)C(=O)N(C)C(CC(C)C)C(=O)NC(C)C(=O)NC(C)C(=O)N(C)C(CC(C)C)C(=O)N(C)C(CC(C)C)C(=O)N(C)C(C(C)C)C(=O)N1C` [(S)-2-(N-Diethylamino)ethylthio-Sar]-3-cyclosporin] here?
Answer: The EC50 was 160 nM.

Question: For `C/C=C/C[C@@H](C)[C@@H](O)[C@H]1C(=O)N[C@@H](CC)C(=O)N(C)[C@H](SCCN(CC)CC)C(=O)N(C)[C@@H](C(C)C)C(=O)N[C@@H](C(C)C)C(=O)N(C)[C@@H](CC(C)C)C(=O)N[C@@H](C)C(=O)N[C@H](C)C(=O)N(C)[C@@H](CC(C)C)C(=O)N(C)[C@@H](CC(C)C)C(=O)N(C)[C@@H](C(C)C)C(=O)N1C` [(R)-2-(N,N-Diethylamino)ethylthio-Sar]-3-[N-MeVal]-4-cyclosporin] (cyclo(A[dA][NMeL][NMeL][NMeV][MeBmt][Abu][X6][NMeV]V[NMeL])), which EC50 is on record?
Answer: Its EC50 is 3660 nM.

Question: `CC=CCC(C)C(O)C1C(=O)NC(CC)C(=O)N(C)C(SCCN(CC)CC)C(=O)N(C)C(CC(C)(C)OCSC)C(=O)NC(C(C)C)C(=O)N(C)C(CC(C)C)C(=O)NC(C)C(=O)NC(C)C(=O)N(C)C(CC(C)C)C(=O)N(C)C(CC(C)C)C(=O)N(C)C(C(C)C)C(=O)N1C` (stereo not drawn) (cyclo([X3][Abu][X4][X5]V[NMeL]AA[NMeL][NMeL][NMeV]); configuration not given here) was tested. Which EC50 did it give?
Answer: Its EC50 is 110 nM.

same assay, conditions: Table 13, HCV replicon luciferase; read-out: Antiviral activity EC50

Question: `CC=CCC(C)C(O)C1C(=O)NC(CC)C(=O)N(C)C(SCCCN2CCOCC2)C(=O)N(C)C(CC(C)(C)OC)C(=O)NC(C(C)C)C(=O)N(C)C(CC(C)C)C(=O)NC(C)C(=O)NC(C)C(=O)N(C)C(CC(C)C)C(=O)N(C)C(CC(C)C)C(=O)N(C)C(C(C)C)C(=O)N1C` [[(S)-3-(N-Morpholino)propylthio-Sar]-3-[(γ-methoxy)-N-MeLeu]-4-cyclosporin] was tested. Which EC50 did it give?
Answer: The EC50 was 60 nM.

Question: With `CC=CCC(C)C(O)C1C(=O)NC(CC)C(=O)N(C)C(SCCCN(CC)CC)C(=O)N(C)C(CC(C)(C)O)C(=O)NC(C(C)C)C(=O)N(C)C(CC(C)C)C(=O)NC(C)C(=O)NC(C)C(=O)N(C)C(CC(C)C)C(=O)N(C)C(CC(C)C)C(=O)N(C)C(C(C)C)C(=O)N1C` [(S)-3-(N,N-Diethylamino)propylthio-Sar]-3-[(γ-hydroxy)-N-MeLeu]-4-cyclosporin] as the compound, how does the EC50 read?
Answer: The EC50 was 70 nM.

same assay, conditions: Table 14, HCV replicon luciferase; read-out: Antiviral activity EC50

Question: Which EC50 does the source give for `C/C=C/C[C@@H](C)[C@@H](O)[C@H]1C(=O)N[C@@H](CC)C(=O)N(C)[C@H](COCCCN2CCOCC2)C(=O)N(C)[C@@H](CC(C)(C)O)C(=O)N[C@@H](C(C)C)C(=O)N(C)[C@@H](CC(C)C)C(=O)N[C@@H](C)C(=O)N[C@H](C)C(=O)N(C)[C@@H](CC(C)C)C(=O)N(C)[C@@H](CC(C)C)C(=O)N(C)[C@@H](C(C)C)C(=O)N1C` [[(R)-(3-(N-Morpholino)propoxy)methyl-Sar]-3-[(γ-hydroxy)-NMeLeu]-4-cyclosporin] here?
Answer: Its EC50 is 40 nM.

same assay, conditions: Table 16, HCV replicon luciferase; read-out: Antiviral activity EC50

Question: `CC=CCC(C)C(O)C1C(=O)NC(CC)C(=O)N(C)C(CSCCCCN(CC(C)C)CC(C)C)C(=O)N(C)C(CC(C)(C)O)C(=O)NC(C(C)C)C(=O)N(C)C(CC(C)C)C(=O)NC(C)C(=O)NC(C)C(=O)N(C)C(CC(C)C)C(=O)N(C)C(CC(C)C)C(=O)N(C)C(C(C)C)C(=O)N1C` (stereo not drawn) was tested. Which EC50 did it give?
Answer: The EC50 was 40 nM.

Question: `CC=CCC(C)C(O)C1C(=O)NC(CC)C(=O)N(C)C(CSCCCN2CCN(CC(C)(C)C)CC2)C(=O)N(C)C(CC(C)(C)O)C(=O)NC(C(C)C)C(=O)N(C)C(CC(C)C)C(=O)NC(C)C(=O)NC(C)C(=O)N(C)C(CC(C)C)C(=O)N(C)C(CC(C)C)C(=O)N(C)C(C(C)C)C(=O)N1C` (stereo not drawn) was tested. Which EC50 did it give?
Answer: The EC50 was 60 nM.
